One series deals with B cells. The series can be described thus: B cell activation by anti-CD22 (RFB4):CpG conjugates in human PBMCs (Examples 2 and 4). In kind it is cell-based. The conditions noted are these: for B cell activation (CD19, CD40, CD69, CD86, HLADR expression): RFB4 conjugates, DAR1, 96 hours; for B cell activation as determined by CD80 expression: conjugate to anti-CD22 antibody (SEQ ID NO: 56 and 57), DAR1, compared with conjugate of CpG (SEQ ID NO: 3) and naked CpG. As to the method:
(§1) PBMCs were immediately plated onto a 96-well format (500K/well) in Complete RPMI (RPMI+10% FBS). Five-fold serial dilutions were added to the cells from 100 nM to 6.4 pM of antibody and conjugated antibody and 1 uM to 64 pM of CpG polynucleotides at 37° C. under 5% CO2 for 48 to 96 hours. Cells were pelleted by centrifugation for five minutes at 400×g and stained at 4° C. in Fixable Viability Dye eFluor 780 (Thermo Fisher Scientific) diluted 1:4000 in PBS. Cells were centrifuged and stained at 4° C. in FACS buffer for 30 minutes containing FcR Blocking Reagent (Miltenyi Biotec), anti-CD19, anti-CD20, anti-CD40, anti-HLADR and anti-CD80 for B cell assays and anti-CD14, anti-CD3, anti-CD19, anti-CD14, anti-CD123, anti-CD11 c and anti-CD86 for pDC assays. Cells were centrifuged and washed twice in FACS buffer and fixed in 0.5% paraformaldehyde. CountBright™ Absolute Counting Beads (Thermo Fisher) were added to each well to count the number of cells. Cells were analyzed on ATTUNE™ NxT Flow Cytometer (Thermo Fisher Scientific), with subsequent data analysis by Flowjo 10.7 (Treestar). Dead cells were excluded by gating on the eFluor 780-negative population. Lineage specific cells were first excluded (CD19, CD3, CD14) prior to gating CD123^+CD11c^− cells to identify pDC and gating CD19^+, CD20^+ or CD19^+CD20^+ cells to identify B cells.
Trima residuals were received from Vitalant and diluted 1:4 with Phosphate Buffered Saline (PBS, Gibco). Diluted blood was split into two tubes and underplayed with 15 mL Ficoll-Paque (GE Healthcare). Tubes were centrifuged for 30 minutes at 400×g. PBMCs were collected from the interface and resuspended in FACS buffer (PBS with 0.5% Bovine Serum Albumin (Gibco)).
as §1, with “antiCD11” for “anti-CD11”, “COUNTBRIGHT™” for “CountBright™”, “Fisher Scientific)” for “Fisher)”
Various B-cell and pDC specific antibodies were conjugated with CpG 12070 (SEQ ID NO: 3), CpG (SEQ ID NOs: 9, 12, 20, 27 and 28), all with the DAR1 configuration, at their C-terminus heavy chain Q-tag ([…]) (SEQ ID NO: 49) via transglutaminase reaction. The conjugated antibodies were subsequently tested for their effects on proliferation and/or activation. […] As shown in FIGS. 5A-5D, the anti-CD22-CpG antibodies enhanced the activation of B cells as compared to naked CpG polynucleotide 12070 (SEQ ID NO: 3) and human IgG control antibody after 96 hours. As determined by CD19, CD40, CD69, CD86, and HLADR expression, only anti-CD22-CpG and CpG alone induced B cell activation. Direct delivery of CpG by a targeting antibody results in higher activation as compared to CpG alone.

Series [1] concerns EMT6 mouse mammary carcinoma cells. The series can be described thus: EMT6 breast cancer model, intratumoral administration. In kind it is in vivo, BALB/c mice. The conditions noted are these: intratumorally 2 doses every 3 days at 24 uM. As to the method:
100 uL of suspended cells were subcutaneously implanted into the right flank of 6 week old female BALB/c mice (Charles River). Tumor size was measured and recorded twice a week with calipers starting 7 days post implantation until duration of the study, approximately 25 days later. Tumor volume was calculated using the following formula: (length×width×width)/2. Once tumors reached on average 180 mm^3, approximately 7 days post implantation, mice were randomized by tumor size and treatments were initiated.

A further series relates to CD19 positive B cells. Kind of series: Free CpG activity on CD40 expression by CD19+ B cells in human PBMCs (Examples 16-17). The conditions noted are these: compared with 12070. In kind it is cell-based. As to the method: Trima residuals were received from Vitalant and diluted 1:2 with Phosphate Buffered Saline (PBS, Gibco). Diluted blood was split into two tubes and underplayed with 15 mL Ficoll-Paque (GE Healthcare). Tubes were centrifuged for 30 minutes at 400×g. PBMCs were collected from the interface, resuspended and washed in FACS buffer (PBS with 0.5% Bovine Serum Albumin (Gibco)). After one wash, PBMCs were resuspended in Complete RPMI (RPMI+10% FBS).
PBMCs were immediately plated onto a 96-well format (500K/well) in Complete RPMI. Five-fold serial dilutions were added to the cells from 1 uM to 64 pM of CpG polynucleotides at 37° C. under 5% CO2 for 48 hours. Cells were pelleted by centrifugation for five minutes at 400×g and stained at 4° C. in Fixable Viability Dye eFluor 780 (Thermo Fisher) diluted 1:4000 in PBS. Cells were centrifuged and stained at 4° C. in FACS buffer for 30 minutes containing FcR Blocking Reagent (Miltenyi Biotec), anti-CD19, anti-CD20, anti-CD40, anti-HLADR and anti-CD80. Cells were centrifuged and washed twice in FACS buffer and fixed in 0.5% paraformaldehyde. Cells were analyzed on ATTUNE™ NxT Flow Cytometer (Thermo Fisher Scientific), with subsequent data analysis by FLOWJO™ 10.7 (Treestar). […] B cells were identified as CD19+CD20+ cells and level of activation marker was assessed by median fluorescent intensity. […]

In a further series the test system is CD19+CD20+ B cells. The series can be described thus: Anti-CD22 (TNT127):CpG conjugates on human PBMCs, CD40 on CD19+ B cells (Examples 19-20). The conditions noted are these: conjugated to antibody TNT127 (DAR1), compared to the 12070 conjugate. In kind it is cell-based. As to the method: Trima residuals were received from Vitalant and diluted 1:2 with Phosphate Buffered Saline (PBS, Gibco). Diluted blood was split into two tubes and underplayed with 15 mL FICOLL® PAQUE medium (GE Healthcare). Tubes were centrifuged for 30 minutes at 400×g. PBMCs were collected from the interface, resuspended and washed in FACS buffer (PBS with 0.5% Bovine Serum Albumin (Gibco)). After one wash, PBMCs were resuspended in Complete RPMI (RPMI+10% FBS). PBMCs were immediately plated onto a 96-well format (500K/well) in Complete RPMI. Five-fold serial dilutions were added to the cells from 100 nM to 6.4 pM conjugated antibody at 37° C. under 5% CO2 for 48 hours. Cells were pelleted by centrifugation for five minutes at 400×g and stained at 4° C. in Fixable Viability Dye eFluor 780 (Thermo Fisher Scientific) diluted 1:4000 in PBS. Cells were centrifuged and stained at 4° C. in FACS buffer for 30 minutes containing FcR Blocking Reagent (Miltenyi Biotec), anti-CD19, anti-CD20, anti-CD40, anti-HLADR and anti-CD80. Cells were centrifuged and washed twice in FACS buffer and fixed in 0.5% paraformaldehyde. Cells were analyzed on ATTUNE™ NxT Flow Cytometer (Thermo Fisher Scientific), with subsequent data analysis by FLOWJO™ 10.7 (Treestar). Dead cells were excluded by gating on the eFluor 780-negative population.
The activity of CD22 antibody-CpG conjugates DAR1 and DAR2 were compared for activity.

For “SEQ ID NO: 20: "modified CpGs"; tested "as an antibody-CpG conjugate" "to anti-CD22 antibody (SEQ ID NO: 56 and SEQ ID NO: 57)" (DNA UCGTCGTGTCGTT; modified CpG; (1)..(13) Linkages as shown in Table 2 of the specification; (1)..(13) Modified as shown in Table 2 of the specification)”, in the series on B cells, the “B cell activation (CD19, CD40, CD69, CD86, HLADR expression)” value is on record as “enhanced activity” and the “B cell activation as determined by CD80 expression” value (“B cell activation as determined” for short) is listed as “increased B cell activation”.

Regarding “CpG-4253: "the free CpG (CpG-4253)"; apparently "4523 murine CpG oligonucleotide", "tucgtcgtgacgtt-c3" (SEQ ID NO:121) (DNA TUCGTCGTGACGTT; 3' C3 spacer, chemistry not fully specified; listed as Mus musculus)”, the anti-tumor potency entry in series [1] was “showed anti-tumor potency”.

As to “SEQ ID NO: 9: "modified CpGs"; tested "as an antibody-CpG conjugate" "to anti-CD22 antibody (SEQ ID NO: 56 and SEQ ID NO: 57)" (DNA UCGTCGTGTCGTTT; modified CpG; (1)..(14) Linkages as shown in Table 2 of the specification; (1)..(14) Modified as shown in Table 2 of the specification)”, in the series on B cells, the “B cell activation (CD19, CD40, CD69, CD86, HLADR expression)” value is “enhanced activity” and the “B cell activation as determined” value is listed as “increased B cell activation”.

Take “SEQ ID NO: 15: "modified CpGs"; tested "as an antibody-CpG conjugate" "to anti-CD22 antibody (SEQ ID NO: 56 and SEQ ID NO: 57)" (DNA UCGTCGTGTCGTT; modified CpG; (1)..(13) Linkages as shown in Table 2 of the specification; (1)..(13) Modified as shown in Table 2 of the specification)”: in the series with B cells, the “B cell activation as determined” value is recorded as “increased B cell activation”.

For the substance “SEQ ID NO: 13: "modified CpGs"; tested "as an antibody-CpG conjugate" "to anti-CD22 antibody (SEQ ID NO: 56 and SEQ ID NO: 57)" (DNA UCGTCGTGTCGTTT; modified CpG; (1)..(14) Linkages as shown in Table 2 of the specification; (1)..(14) Modified as shown in Table 2 of the specification)”, the “B cell activation as determined” value in the series with B cells is on record as “increased B cell activation”.

Regarding “SEQ ID NO: 12: "modified CpGs"; tested "as an antibody-CpG conjugate" "to anti-CD22 antibody (SEQ ID NO: 56 and SEQ ID NO: 57)" (DNA UCGTCGTGTCGTTT; modified CpG; (1)..(14) Linkages as shown in Table 2 of the specification; (1)..(14) Modified as shown in Table 2 of the specification)”, in the series with B cells, the “B cell activation as determined” value is listed as “increased B cell activation”.

On to “7-6: CpG oligonucleotide: "CpG 7-6 (SEQ ID NO:34)" (DNA UCGTCGTGTCGTTT; chemically modified, pattern not given here)”, for which, in the series with CD19 positive B cells, the “CD40 expression in PBMC from three donors (D559, D804 and D643)” value is on record as “higher activities”. The CD40 expression result in the series on CD19+CD20+ B cells is reported as “substantially better activity”.

Source of the values: patent US11920136B2, “Transglutaminase-mediated conjugation” (Tallac Therapeutics, Inc., priority 2020, dated 2024).
